In PubChem BioAssay AID1259407 (Chemical Carcinogenesis Research Information System (CCRIS), 2018):
Activity calls are given as the source filed them. No rule for the calls is given here.

Tested on: CCRIS mutagenicity, Ames/micronucleus/aberration tests
Assay: CCRIS mutagenicity studies
[1] = Test System: AMES SALMONELLA TYPHIMURIUM, Strain/Indicator: TA98, Metabolic Activation: NONE, Method: PREINCUBATION
[2] = Test System: AMES SALMONELLA TYPHIMURIUM, Strain/Indicator: TA98, Metabolic Activation: NONE, Method: STANDARD PLATE
[3] = Test System: AMES SALMONELLA TYPHIMURIUM, Strain/Indicator: TA100, Metabolic Activation: NONE, Method: STANDARD PLATE
[4] = Test System: AMES SALMONELLA TYPHIMURIUM, Strain/Indicator: TA100, Metabolic Activation: RAT, LIVER, S-9, AROCLOR 1254, Method: STANDARD PLATE
[5] = Test System: AMES SALMONELLA TYPHIMURIUM, Strain/Indicator: TA100, Metabolic Activation: NONE, Method: PREINCUBATION

CN1CCCC1=O was tested, and the mutagenic call (Test System: AMES SALMONELLA TYPHIMURIUM, Strain/Indicator: TA97, Metabolic Activation: NONE, Method: STANDARD PLATE) was “inactive; negative”, the mutagenic call (Test System: AMES SALMONELLA TYPHIMURIUM, Strain/Indicator: TA97, Metabolic Activation: RAT, LIVER, S-9, AROCLOR 1254, Method: STANDARD PLATE) was “inactive; negative” and the mutagenic call [1] was “inactive; negative”. For the same compound, the mutagenic call [2] was “inactive; negative”, the mutagenic call (Test System: AMES SALMONELLA TYPHIMURIUM, Strain/Indicator: TA98, Metabolic Activation: RAT, LIVER, S-9, AROCLOR 1254, Method: PREINCUBATION) was “inactive; negative” and the mutagenic call (Test System: AMES SALMONELLA TYPHIMURIUM, Strain/Indicator: TA98, Metabolic Activation: RAT, LIVER, S-9, AROCLOR 1254, Method: STANDARD PLATE) was “inactive; negative”. For the same compound, the mutagenic call [3] was “inactive; negative”, the mutagenic call [4] was “inactive; negative” and the mutagenic call (Test System: AMES SALMONELLA TYPHIMURIUM, Strain/Indicator: TA102, Metabolic Activation: NONE, Method: STANDARD PLATE) was “inactive; negative”. For the same compound, the mutagenic call (Test System: AMES SALMONELLA TYPHIMURIUM, Strain/Indicator: TA102, Metabolic Activation: RAT, LIVER, S-9, AROCLOR 1254, Method: STANDARD PLATE) was “inactive; negative”, the mutagenic call (Test System: AMES SALMONELLA TYPHIMURIUM, Strain/Indicator: TA104, Metabolic Activation: NONE, Method: PREINCUBATION) was “inactive; negative” and the mutagenic call (Test System: AMES SALMONELLA TYPHIMURIUM, Strain/Indicator: TA104, Metabolic Activation: NONE, Method: STANDARD PLATE) was “inactive; negative”. The mutagenic call (Test System: AMES SALMONELLA TYPHIMURIUM, Strain/Indicator: TA104, Metabolic Activation: RAT, LIVER, S-9, AROCLOR 1254, Method: PREINCUBATION) was “inactive; negative”, the mutagenic call (Test System: AMES SALMONELLA TYPHIMURIUM, Strain/Indicator: TA104, Metabolic Activation: RAT, LIVER, S-9, AROCLOR 1254, Method: STANDARD PLATE) was “inactive; negative” and the mutagenic call (Test System: AMES SALMONELLA TYPHIMURIUM, Strain/Indicator: TA2638, Metabolic Activation: NONE, Method: STANDARD PLATE) was “inactive; negative”. The mutagenic call (Test System: AMES SALMONELLA TYPHIMURIUM, Strain/Indicator: TA2638, Metabolic Activation: RAT, LIVER, S-9, AROCLOR 1254, Method: STANDARD PLATE) was “inactive; negative”, the mutagenic call (Test System: AMES SALMONELLA TYPHIMURIUM, Strain/Indicator: UTH8413, Metabolic Activation: NONE, Method: STANDARD PLATE) was “inactive; negative” and the mutagenic call (Test System: AMES SALMONELLA TYPHIMURIUM, Strain/Indicator: UTH8413, Metabolic Activation: RAT, LIVER, S-9, AROCLOR 1254, Method: STANDARD PLATE) was “inactive; negative”. For the same compound, the mutagenic call (Test System: AMES SALMONELLA TYPHIMURIUM, Strain/Indicator: UTH8414, Metabolic Activation: NONE, Method: STANDARD PLATE) was “inactive; negative” and the mutagenic call (Test System: AMES SALMONELLA TYPHIMURIUM, Strain/Indicator: UTH8414, Metabolic Activation: RAT, LIVER, S-9, AROCLOR 1254, Method: STANDARD PLATE) was “inactive; negative”.

Cn1c(C(F)(F)F)cc2c(N3CCCC3)nc(N3CCCC3)nc21 was tested, and the mutagenic call (Test System: UDS RAT HEPATOCYTES, Strain/Indicator: THY-INCORP, Metabolic Activation: NONE, Method: AUTORADIOGRAPHY) was “inactive; negative”.

For Oc1cnc2ccccc2c1, the mutagenic call [3] was “inactive; negative” and the mutagenic call (Test System: AMES SALMONELLA TYPHIMURIUM, Strain/Indicator: TA100, Metabolic Activation: RAT, LIVER, S-9, AROCLOR 1254 (10% OR 20%), Method: STANDARD PLATE) was “inactive; negative”.

For Oc1ccc2cccc(O)c2c1, the mutagenic call (Test System: AMES SALMONELLA TYPHIMURIUM, Strain/Indicator: TA2637, Metabolic Activation: NONE, Method: PREINCUBATION) was “active; positive”.

O[C@@H]1[C@H]2O[C@H]2c2c(ccc3nc4ccc5ccccc5c4cc23)[C@H]1O was tested, and the mutagenic call [2] was “active; positive”, the mutagenic call (Test System: AMES SALMONELLA TYPHIMURIUM, Strain/Indicator: TA100, Metabolic Activation: GUINEA PIG, LIVER, S-9, 3-METHYLCHOLANTHRENE, Method: STANDARD PLATE) was “active; positive” and the mutagenic call [3] was “active; positive”. The mutagenic call (Test System: CHINESE HAMSTER V-79, Strain/Indicator: V-79/6-THIOGUANINE, Metabolic Activation: NONE) was “active; positive”.

c1ccc2c3c(ccc2c1)-c1cccc2cccc-3c12 was tested, and the mutagenic call (Test System: AMES SALMONELLA TYPHIMURIUM, Strain/Indicator: TA97A, Metabolic Activation: NONE, Method: PREINCUBATION) was “inactive; negative”, the mutagenic call [1] was “inactive; negative” and the mutagenic call [5] was “inactive; negative”. The mutagenic call [4] was “active; positive”.

CC(=O)O[C@@H]1[C@@H](O)[C@H]2O[C@@H]3C=C(C)C(=O)[C@@H](O)[C@]3(CO)[C@]1(C)[C@]21CO1 was tested, and the mutagenic call [2] was “inactive; negative”, the mutagenic call (Test System: AMES SALMONELLA TYPHIMURIUM, Strain/Indicator: TA98, Metabolic Activation: RAT LIVER S-9, DELOREM 103, Method: STANDARD PLATE) was “inactive; negative” and the mutagenic call [5] was “inactive; negative”. For the same compound, the mutagenic call [3] was “inactive; negative”, the mutagenic call (Test System: AMES SALMONELLA TYPHIMURIUM, Strain/Indicator: TA100, Metabolic Activation: RAT LIVER S-9, DELOREM 103, Method: STANDARD PLATE) was “inactive; negative” and the mutagenic call (Test System: AMES SALMONELLA TYPHIMURIUM, Strain/Indicator: TA100, Metabolic Activation: RAT, LIVER, S-9, PHENOBARBITAL, Method: PREINCUBATION) was “inactive; negative”.

For [CH3][Sn]([CH3])([CH3])[CH3], the mutagenic call (Test System: AMES SALMONELLA TYPHIMURIUM, Strain/Indicator: TA98, Metabolic Activation: NONE, Method: SUSPENSION/PLATE) was “inactive; negative” and the mutagenic call (Test System: AMES SALMONELLA TYPHIMURIUM, Strain/Indicator: TA100, Metabolic Activation: NONE, Method: SUSPENSION/PLATE) was “inactive; negative”.

In the case of CCc1ccc(N)cc1, the mutagenic call (Test System: E. COLI, Strain/Indicator: WP2 UVRA, Metabolic Activation: NONE, Method: FLUCTUATION TEST) is reported as “inactive; negative”.
